Tested on: protein kinases (human kinome)
Assay type: cell-based
Settings: for kinases the bifunctional compound degrades: as stated for the structure in the embodiments; for Kinase hits: kinases significantly downregulated vs DMSO (fold change cutoff −1.25, P-value<0.01), ≤8 h, 0.1-5 μM degrader, 7 cell lines; for Total no. kinase hits: number of degraded kinases per library compound
From the text: Although development of targeted protein degraders requires a POI binder, among already-liganded proteins such as kinases, it was hypothesized that different targets would have a different propensity for current approaches to degrader-mediated destruction, which was termed ‘degradability’. […] It was rationalized that the probability of identifying the same kinase as a false positive in multiple treatments is low, therefore this analysis served to also assess the robustness of our data and subsequent interpretations. […] Overall, 62 protein kinases were degraded in more than 10 independent treatments, and remarkably, 9 of these (CDK4, AURKA, FER, WEE1, BLK. LIMK2, CDK6, GAK, LIMK1) were each degraded in at least 40 of the 154 independent treatments, emphasizing their predisposition to induced degradation (FIG. 1G; Appendix I).
Next, the frequency of degradation assessment was corrected for over-representation of molecules in the full dataset by omitting replicate profiling of compounds under different experimental conditions, to remove any bias. […] Unsurprisingly, the top degradable kinases mirror those from the previous analysis (CDK4, AURKA, FER, WEE1, BLK), confirming that in sufficiently large datasets, even with over-representation of certain molecules, frequency of degradation is a good measure of general tractability.

| SMILES | kinases the bifunctional compound degrades | Kinase hits | Total no. kinase hits |
| --- | --- | --- | --- |
| O=C1CCC(N2C(=O)c3cccc(NCCOCCOCCOCCOCCC(=O)Nc4cccc(CN5CCC(NC(=O)c6[nH]ncc6NC(=O)c6c(Cl)cccc6Cl)CC5)c4)c3C2=O)C(=O)N1 (centres unmarked) [FMF-04-147-1] | CDK11A, CDK9, CLK1, GSK3A, GSK3B, PIK3CG, and SGK3 | CDK11A, CDK9, CLK1, GSK3A, GSK3B, PIK3CG, SGK3 | 7 |
| CC(C)S(=O)(=O)c1ccccc1Nc1nc(Nc2ccc(N3CCN(CCOCCOCCNC(=O)CNc4ccc5c(c4)C(=O)N(C4CCC(=O)NC4=O)C5=O)CC3)cc2)ncc1Cl (centres unmarked) [LT2-49, N-(2-(2-(2-(4-(4-((5-chloro-4-((2-(isopropylsulfonyl)phenyl)amino)pyrimidin-2-yl)amino)phenyl)piperazin-1-yl)ethoxy)ethoxy)ethyl)-2-((2-(2,6-dioxopiperidin-3-yl)-1,3-dioxoisoindolin-5-yl)amino)acetamide] | CDK4, AURKA, WEE1, BLK, FER, CDK6, LIMK2, AAK1, CDK5, CDK2, ITK, CDK17, LCK, PTK2B, CDK9, CDK7, CDK13, PRKAA1, CDK12, BMP2K, and STK10 | CDK4, AURKA, WEE1, BLK, FER, CDK6, LIMK2, AAK1, CDK5, CDK2, ITK, CDK17, LCK, PTK2B, CDK9, CDK7, CDK13, PRKAA1, CDK12, BMP2K, STK10 | 21 |
| Cc1cc(Nc2ncc(Cl)c(Nc3ccccc3S(=O)(=O)C(C)C)n2)c(OC(C)C)cc1C1CCN(CCOCCOCCNC(=O)CNc2cccc3c2C(=O)N(C2CCC(=O)NC2=O)C3=O)CC1 (centres unmarked) [TL13-112] | – | FER, PTK2, RPS6KA1 | 3 |
| Cc1cc(Nc2ncc(Br)c(Nc3cccc(F)c3C(N)=O)n2)ccc1S(=O)(=O)NCCOCCOCCOCCOCCNc1cccc2c1C(=O)N(C1CCC(=O)NC1=O)C2=O (centres unmarked) [TMX-02-174] | – | AAK1, AURKA, AURKB, CDK1, CDK12, CDK16, CDK17, CDK2, CDK5, CDK7, CDK9, CLK1, FER, GSK3A, GSK3B, IRAK3, MAP3K11, MAPK8, MAPK9, NEK1, NEK3, NEK4, NEK9, NUAK1, PRKAA1, PRKAA2, PTK2, PTK2B, RPS6KA1, RPS6KA3, RPS6KA4, STK33, STK35, STK38, TBK1, TEC, TTK, WEE1 | 37 |
| CC(C)S(=O)(=O)c1ccccc1Nc1nc(Nc2ccc(N3CCN(CCOCCOCCOCCNC(=O)CNc4cccc5c4C(=O)N(C4CCC(=O)NC4=O)C5=O)CC3)cc2)ncc1Cl (centres unmarked) [SK-3-87, N-(2-(2-(2-(2-(4-(4-((5-chloro-4-((2-(isopropylsulfonyl)phenyl)amino)pyrimidin-2-yl)amino)phenyl)piperazin-1-yl)ethoxy)ethoxy)ethoxy)ethyl)-2-((2-(2,6-dioxopiperidin-3-yl)-1,3-dioxoisoindolin-4-yl)amino)acetamide] | AAK1, AURKA, BLK, CDK12, CDK17, CDK2, CDK5, CDK7, CDK9, FER, ITK, LCK, LIMK2, PTK2B, and WEE1 | AAK1, AURKA, BLK, CDK12, CDK17, CDK2, CDK5, CDK7, CDK9, FER, ITK, LCK, LIMK2, PTK2B, WEE1 | 15 |
| Nc1ncnc2c1c(-c1ccc(Oc3ccccc3)cc1)nn2[C@H]1CC[C@H](N2CCN(CCCCCCNC(=O)COc3cccc4c3C(=O)N(C3CCC(=O)NC3=O)C4=O)CC2)CC1 (some centres unmarked) [SB1-G-200] | ABL1, ABL2, BLK, CSNK1E. CSK, FYN, LATS1, LCK, LIMK1, MAP2K5, and SRC | ABL1, ABL2, BLK, CSNK1E, CSK, FYN, LATS1, LCK, LIMK1, MAP2K5, SRC | 11 |
| O=C1CCC(N2C(=O)c3cccc(NCCCCCCCCN4CCC(NC(=O)c5[nH]ncc5NC(=O)c5c(Cl)cccc5Cl)CC4)c3C2=O)C(=O)N1 (centres unmarked) [MFH-5-126-1] | AURKA, BUB1, BUB1B, CDK13, CDK14, CDK17, CDK4, CDK9, CHEK1, CLK1, CSNK1A1, CSNK1D, DAPK1, ERN1, GSK3A, GSK3B, MAP3K1, NUAK1, PIK3CG, PIM2, PLK1, RIOK2, STK17A, STK7B, TTK, UHMK1, and WEE1 | AURKA, BUB1, BUB1B, CDK13, CDK14, CDK17, CDK4, CDK9, CHEK1, CLK1, CSNK1A1, CSNK1D, DAPK1, ERN1, GSK3A, GSK3B, MAP3K1, NUAK1, PIK3CG, PIM2, PLK1, RIOK2, STK17A, STK17B, TTK, UHMK1, WEE1 | 27 |
| Cc1ncsc1-c1ccc([C@H](C)NC(=O)[C@@H]2C[C@@H](O)CN2C(=O)[C@@H](NC(=O)CCOCCOCCN2CCN(c3ccc(Nc4ncc(Cl)c(Nc5ccccc5S(=O)(=O)C(C)C)n4)cc3)CC2)C(C)(C)C)cc1 [FMF-06-098-1, (2S,4R)-1-((S)-2-(3-(2-(2-(4-(4-((5-chloro-4-((2-(isopropylsulfonyl)phenyl)amino)pyrimidin-1320 2-yl)amino)phenyl)piperazin-I-yl)ethoxy)ethoxy)propanamido)-3,3-dimethylbutanoyl)-4-1321 hydroxy-N—((S)-1-(4-(4-methylthiazol-5-yl)phenyl)ethyl)pyrrolidine-2-carboxamide] | AAK1, ABL2, AURKA, AURKB, BUB1B, CDC7, CDK1, CDK12, CDK13, CDK2, CDK4, CDk6, CDK7, CDK9, CHEK1, CSNK1D. EPHA1, FER, FGFR1, GAK, IRAK4, ITK, LIMK2, MAP4K2, MAP4K3, MAPK6, MAPK7, MARK4, MELK, PKN3, PLK4, PRKAA1, PTK2, PTK6, RPS6KA4, SIK2, STK35, TNK2. UHMK1, ULK1, and WEE1 | AAK1, ABL2, AURKA, AURKB, BUB1B, CDC7, CDK1, CDK12, CDK13, CDK2, CDK4, CDk6, CDK7, CDK9, CHEK1, CSNK1D, EPHA1, FER, FGFR1, GAK, IRAK4, ITK, LIMK2, MAP4K2, MAP4K3, MAPK6, MAPK7, MARK4, MELK, PKN3, PLK4, PRKAA1, PTK2, PTK6, RPS6KA4, SIK2, STK35, TNK2, UHMK1, ULK1, WEE1 | 42 |
| Cc1ncsc1-c1ccc([C@H](C)NC(=O)[C@@H]2C[C@@H](O)CN2C(=O)[C@@H](NC(=O)CCCCCN2CCc3cc(Nc4ncc(C5CC5)c(NCCCNC(=O)C5CCC5)n4)ccc3C2)C(C)(C)C)cc1 [BSJ-05-026] | – | AAK1, GAK, MARK2, MARK3, MARK4, RPS6KB1, SIK2, SIK3, SNRK, STKI7A, STKI7B, ULK1, WEE1 | 13 |
| CC(C)S(=O)(=O)c1ccccc1Nc1nc(Nc2ccc(N3CCN(CCOCCOCCOCCNC(=O)CNc4ccc5c(c4)C(=O)N(C4CCC(=O)NC4=O)C5=O)CC3)cc2)ncc1Cl (centres unmarked) [SK-3-89] | AAK1, AURKA, BLK, CDK12, CDK17, CDK2, CDK4, CDK5, CDK6, CDK7, CDK9, FER, ITK, LCK, LIMK2, PTK2B, STK10, and WEE1 | AAK1, AURKA, BLK, CDK12, CDK17, CDK2, CDK4, CDK5, CDK6, CDK7, CDK9, FER, ITK, LCK, LIMK2, PTK2B, STK10, WEE1 | 18 |
| C[C@@H]1C[C@@H](O)c2ncnc(N3CCN(C(=O)[C@H](CNCCCCCCCCNC(=O)COc4cccc5c4C(=O)N(C4CCC(=O)NC4=O)C5=O)c4ccc(Cl)cc4)CC3)c21 (some centres unmarked) [INY-02-164] | – | AKT1, AKT2, AKT3, BCKDK, PDK1 | 5 |
| COc1cc(N2CCN(CCOCCOCCNC(=O)CNc3cccc4c3C(=O)N(C3CCC(=O)NC3=O)C4=O)CC2)ccc1Nc1ncc(Cl)c(Nc2ccccc2S(=O)(=O)C(C)C)n1 (centres unmarked) [TL13-12] | – | AURKA, FER, PRK2 | 3 |
| CC(=O)c1c(C)c2cnc(Nc3ccc(N4CCN(CC(=O)NCCOCCOCCOCCNc5cccc6c5C(=O)N(C5CCC(=O)NC5=O)C6=O)CC4)cn3)nc2n(C2CCCC2)c1=O (centres unmarked) [YKL-06-102] | – | CDK4, CDK6, WEE1 | 3 |
| O=C(COc1cccc2c1C(=O)N(C1CCC(=O)NC1=O)C2=O)NCCCCCCCN1CCc2cc(Nc3ncc(C4CC4)c(NCCCNC(=O)C4CCC4)n3)ccc2C1 (centres unmarked) [BSJ-04-178] | AAK1, AURKA, AURKB. BMP2K, CDK10, CDK9, GAK, MARK2, MARK3, MARK4, SIK2, STK17A, STK17B, SNRK, ULK1, and WEE1 | AAK1, AURKA, AURKB, BMP2K, CDK10, CDK9, GAK, MARK2, MARK3, MARK4, SIK2, STKI7A, STK17B, SNRK, ULK1, WEE1 | 16 |
| COc1cc(N2CCN(CCOCCOCCC(=O)N[C@H](C(=O)N3C[C@H](O)C[C@H]3C(=O)N[C@@H](C)c3ccc(-c4scnc4C)cc3)C(C)(C)C)CC2)ccc1Nc1ncc2c(n1)N(C)c1ccccc1C(=O)N2CC(F)(F)F [FMF-03-178-1] | – | BLK, CSK | 2 |
